Literature values in US10966913B2, “Cosmetic use of spiculisporic acid as a deodorant active agent” (L'OREAL, priority 2014, dated 2021).

Conditions: room temperature

CCCCCCCCCCC(C(=O)O)C1(C(=O)O)CCC(=O)O1 (stereo not drawn) [spiculisporic acid, 4,5-dicarboxy-4-pentadecanolide]
solubility in ethanol: soluble | solubility in fatty substances: insoluble | solubility in water: insoluble
